# Legend:
# [1] = molecular target: T1, recombinant BACE1 protein (Homo sapiens, UniProt P56817); assay: BACE1 biochemical FRET based assay - Method 1; settings: BACE1, 120 minutes at room temperature, pH 5.0; read-out: Biochemical FRET based assay - Method 1 pIC50 (converted)
# T1 construct: recombinant BACE1 protein in a final concentration of 1 μg/ml
# Description: (§1) This assay is a Fluorescence Resonance Energy Transfer Assay (FRET) based assay. The substrate for this assay is an APP derived 13 amino acids peptide that contains the ‘Swedish’ Lys-Met/Asn-Leu mutation of the amyloid precursor protein (APP) beta-secretase cleavage site. This substrate also contains two fluorophores: (7-methoxycoumarin-4-yl) acetic acid (Mca) is a fluorescent donor with excitation wavelength at 320 nm and emission at 405 nm and 2,4-Dinitrophenyl (Dnp) is a proprietary quencher acceptor. […] Upon cleavage by BACE1, the fluorophore Mca is separated from the quenching group Dnp, restoring the full fluorescence yield of the donor. The increase in fluorescence is linearly related to the rate of proteolysis.
# Briefly in a 384-well format recombinant BACE1 protein in a final concentration of 1 μg/ml is incubated for 120 minutes at room temperature with 10 μm substrate in incubation buffer (40 mM Citrate buffer pH 5.0, 0.04% PEG, 4% DMSO) in the absence or presence of compound. Next the amount of proteolysis is directly measured by fluorescence measurement at T=0 and T=120 (excitation at 320 nm and emission at 405 nm). Results are expressed in RFU (Relative Fluorescence Units), as difference between T120 and T0.
# (§2) A best-fit curve is fitted by a minimum sum of squares method to the plot of % Controlmin versus compound concentration. From this an IC50 value (inhibitory concentration causing 50% inhibition of activity) can be obtained.
# [2] = tested on: Abeta 1-42 produced and secreted into the medium of human neuroblastoma SKNBE2 cells; assay: Cellular αLisa assay in SKNBE2 cells, Abeta 42; type: cell-based; settings: SKNBE2 cells expressing hAPP695, incubated for 18 hours; for IC50: Homo sapiens, SKNBE2, 18 h, read-out: Cellular αLisa assay in SKNBE2 cells Abeta 42 pIC50 (converted)
# Procedure: In two αLisa assays the levels of Abeta 1-42 produced and secreted into the medium of human neuroblastoma SKNBE2 cells are quantified. The assay is based on the human neuroblastoma SKNBE2 expressing the wild type Amyloid Precursor Protein (hAPP695). The compounds are diluted and added to these cells, incubated for 18 hours and then measurements of Abeta 1-42 are taken. Abeta 1-42 are measured by sandwich αLisa. αLisa is a sandwich assay using biotinylated antibody AbN/25 attached to streptavidin coated beads and antibody cAb42/26 conjugated acceptor beads for the detection of Abeta 1-42 respectively. In the presence of Abeta 1-42, the beads come into close proximity. The excitation of the donor beads provokes the release of singlet oxygen molecules that trigger a cascade of energy transfer in the acceptor beads, resulting in light emission. Light emission is measured after 1 hour incubation (excitation at […] and emission at 615 nm).
# as §2
# [3] = molecular target: T2, recombinant BACE2 protein (Homo sapiens, UniProt Q9Y5Z0); assay: BACE2 biochemical FRET based assay; settings: BACE2, 450 minutes at room temperature, pH 5.0; read-out: Biochemical FRET based assay pIC50 (converted)
# T2 construct: recombinant BACE2 protein in a final concentration of 0.4 μg/ml
# T2 sequence (Q9Y5Z0 63-518): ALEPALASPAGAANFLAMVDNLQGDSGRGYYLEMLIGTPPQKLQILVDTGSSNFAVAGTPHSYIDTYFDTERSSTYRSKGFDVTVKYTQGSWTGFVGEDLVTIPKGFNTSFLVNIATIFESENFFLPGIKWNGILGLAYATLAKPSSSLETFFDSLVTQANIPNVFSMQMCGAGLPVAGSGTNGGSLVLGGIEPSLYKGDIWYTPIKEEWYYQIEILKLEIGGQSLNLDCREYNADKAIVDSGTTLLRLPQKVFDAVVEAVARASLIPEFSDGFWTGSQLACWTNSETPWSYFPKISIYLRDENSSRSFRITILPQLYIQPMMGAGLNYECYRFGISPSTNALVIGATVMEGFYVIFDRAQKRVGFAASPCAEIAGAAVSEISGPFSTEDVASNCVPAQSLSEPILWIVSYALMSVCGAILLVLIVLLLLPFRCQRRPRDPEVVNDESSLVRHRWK
# Description: as §1, with “assay” for “assay is an APP derived 13 amino acids peptide that”, “the beta-secretase,” for “BACE1,”
# Briefly in a 384-well format recombinant BACE2 protein in a final concentration of 0.4 μg/ml is incubated for 450 minutes at room temperature with 10 μM substrate in incubation buffer (50 mM Citrate buffer pH 5.0, 0.05% PEG, no DMSO) in the absence or presence of compound. Next the amount of proteolysis is directly measured by fluorescence measurement at T=0 and T=450 (excitation at 320 nm and emission at 405 nm). Results are expressed in RFU (Relative Fluorescence Units), as difference between T450 and T0.
# as §2
# T1 sequence (P56817 46-501): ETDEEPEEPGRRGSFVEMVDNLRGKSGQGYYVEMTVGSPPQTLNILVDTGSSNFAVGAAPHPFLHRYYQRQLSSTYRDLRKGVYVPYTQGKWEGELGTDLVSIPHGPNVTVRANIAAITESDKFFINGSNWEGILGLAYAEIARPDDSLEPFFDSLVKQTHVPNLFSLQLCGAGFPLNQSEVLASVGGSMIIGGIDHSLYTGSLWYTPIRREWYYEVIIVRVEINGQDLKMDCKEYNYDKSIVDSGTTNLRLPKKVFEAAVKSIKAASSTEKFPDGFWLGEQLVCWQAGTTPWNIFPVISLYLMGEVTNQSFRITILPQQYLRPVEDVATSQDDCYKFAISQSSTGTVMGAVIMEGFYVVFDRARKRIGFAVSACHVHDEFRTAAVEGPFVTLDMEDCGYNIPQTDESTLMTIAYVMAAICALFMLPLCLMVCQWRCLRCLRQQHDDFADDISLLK
Structure (SMILES),IC50 [1],IC50 [2],IC50 [3],Cellular αLisa assay in SKNBE2 cells Abeta 42 pIC50 [2]
COc1cnc(C(=O)Nc2ccc(F)c([C@@]3(C(F)F)CC[C@](C)(C#N)C(N)=N3)c2)cn1 [Compound 13],> 10000 nM,> 8910 nM,> 10000 nM,
"COc1cnc(C(=O)Nc2ccc(F)c(C3(C)CCC(C)(C#N)C(N)=N3)c2)cn1 (single isomer, unassigned) [Compound 15]",9.77 nM,,66.1 nM,8.16
C[C@]1(S(C)(=O)=O)CC(F)(F)[C@@](C)(c2cc(NC(=O)c3cnc(OCF)cn3)ccc2F)N=C1N [Compound 23],1660 nM,4470 nM,4680 nM,
COc1cnc(C(=O)Nc2ccc(F)c([C@]3(C(F)F)CC[C@@](C)(C#N)C(N)=N3)c2)cn1 [Compound 14],11.7 nM,49 nM,115 nM,
COc1cnc(C(=O)Nc2ccc(F)c([C@@]3(C)N=C(N)[C@@](C)(C#N)C[C@@H]3F)c2)cn1 [Compound 7],79.4 nM,66.1 nM,562 nM,
COc1cnc(C(=O)Nc2ccc(F)c([C@@]3(C)N=C(N)[C@](C)(C#N)C[C@@H]3F)c2)cn1 [Compound 8],12.9 nM,13.2 nM,70.8 nM,
"COc1cnc(C(=O)Nc2ccc(F)c(C3(C)CCC(C)(C#N)C(N)=N3)c2)cn1 (single isomer, unassigned) [Compound 16]",257 nM,,1350 nM,7.35
CO[C@@H]1C[C@@](C)(S(C)(=O)=O)C(N)=N[C@]1(C)c1cc(NC(=O)c2cnc(OCF)cn2)ccc1F [Compound 48a],24 nM,16.6 nM,447 nM,
COc1cnc(C(=O)Nc2ccc(F)c([C@@]3(C)N=C(N)[C@@](C)(C#N)C[C@H]3F)c2)cn1 [Compound 6],145 nM,240 nM,537 nM,
COc1cnc(C(=O)Nc2ccc(F)c([C@@]3(C(F)F)CC[C@@](C)(C#N)C(N)=N3)c2)cn1 [Compound 12],6760 nM,> 8910 nM,> 10000 nM,
COc1cnc(C(=O)Nc2ccc(F)c([C@]3(C(F)F)CC[C@](C)(C#N)C(N)=N3)c2)cn1 [Compound 11],138 nM,339 nM,891 nM,
CO[C@H]1C[C@@](C)(C#N)C(N)=N[C@]1(C)c1cc(NC(=O)c2cnc(OCF)cn2)ccc1F [Compound 49a],33.9 nM,17 nM,324 nM,

# The remaining lines, values ahead:
IC50 [1],IC50 [2],IC50 [3],Cellular αLisa assay in SKNBE2 cells Abeta 42 pIC50 [2],Structure (SMILES)
53.7 nM,50.1 nM,417 nM,,COc1cnc(C(=O)Nc2ccc(F)c([C@]3(CF)CC[C@@](C)(C#N)C(N)=N3)c2)cn1 [Compound 5]
380 nM,380 nM,302 nM,,C[C@]1(S(C)(=O)=O)CC[C@@](CF)(c2cc(NC(=O)c3ccc(F)cn3)ccc2F)N=C1N [Compound 19]
2.4 nM,3.72 nM,2.04 nM,,CC1(S(=O)(=O)C2CC2)CCC(CF)(c2cc(NC(=O)c3ccc(F)cn3)ccc2F)N=C1N (stereo not drawn) [Compound 25]
4.57 nM,1.86 nM,3.31 nM,,Cc1nc(C(=O)Nc2ccc(F)c(C3(CF)CCC(C)(S(C)(=O)=O)C(N)=N3)c2)co1 (stereo not drawn) [Compound 40]
3.72 nM,3.47 nM,32.4 nM,,CCOc1cnc(C(=O)Nc2ccc(F)c(C3(CF)CCC(C)(S(C)(=O)=O)C(N)=N3)c2)cn1 (stereo not drawn) [Compound 37]
2630 nM,1350 nM,> 10000 nM,,COc1cnc(C(=O)Nc2ccc(F)c([C@]3(CF)CC[C@](C)(S(C)(=O)=O)C(N)=N3)c2)cn1 [Compound 1]
3.16 nM,3.24 nM,13.5 nM,,COc1cnc(C(=O)Nc2ccc(F)c(C3(CF)CCC(C)(S(C)(=O)=O)C(N)=N3)c2)nc1 (stereo not drawn) [Compound 45]
851 nM,692 nM,5750 nM,,COc1cnc(C(=O)Nc2ccc(F)c([C@]3(CF)CC[C@](C)(C#N)C(N)=N3)c2)cn1 [Compound 4]
5750 nM,3550 nM,> 10000 nM,,COc1cnc(C(=O)Nc2ccc(F)c([C@@]3(C)N=C(N)[C@@](C)(S(C)(=O)=O)C[C@@H]3F)c2)cn1 [Compound 18]
3.89 nM,1.12 nM,21.9 nM,,COc1cnc(C(=O)Nc2ccc(F)c([C@]3(C)CC[C@@](C)(S(C)(=O)=O)C(N)=N3)c2)cn1 [Compound 10]
3.55 nM,16.6 nM,4.37 nM,,C[C@@]1(S(C)(=O)=O)CC[C@@](CF)(c2cc(NC(=O)c3ccc(F)cn3)cc(F)c2F)N=C1N [Compound 47]
3.8 nM,2.4 nM,22.4 nM,,CC1(S(C)(=O)=O)CCC(CF)(c2cc(NC(=O)c3cnc(C(F)F)cn3)ccc2F)N=C1N (stereo not drawn) [Compound 42]
3.63 nM,1.15 nM,3.39 nM,,CC1(S(C)(=O)=O)CCC(CF)(c2cc(NC(=O)c3ncc(Cl)cn3)ccc2F)N=C1N (stereo not drawn) [Compound 44]
30.9 nM,14.5 nM,93.3 nM,,COc1cnc(C(=O)Nc2ccc(F)c([C@@]3(C)N=C(N)[C@](C)(S(C)(=O)=O)C[C@@H]3F)c2)cn1 [Compound 17]
3.89 nM,7.08 nM,4.17 nM,,CC1(S(C)(=O)=O)CCC(CF)(c2cc(NC(=O)c3ncc(F)cn3)ccc2F)N=C1N (stereo not drawn) [Compound 38]
9.12 nM,4.47 nM,64.6 nM,,CC1(S(C)(=O)=O)CCC(CF)(c2cc(NC(=O)c3ncc(C(F)(F)F)cn3)ccc2F)N=C1N (stereo not drawn) [Compound 43]
91.2 nM,468 nM,977 nM,,C[C@]1(c2cc(NC(=O)c3cnc(OCF)cn3)ccc2F)N=C(N)[C@](C)(S(C)(=O)=O)CC1(F)F [Compound 24]
